Experimental data from patent publication US9181263B2, “Inhibitors of bruton's tyrosine kinase” (PHARMACYCLICS, INC., priority 2007, dated 2015).

Tests used:
[1] = Glutathione binding assay; assay type: physicochemical; conditions: 5 mM glutathione, 10 μM inhibitor, potassium phosphate buffer, room temperature, HPLC
Method: A calculated value (e.g (1/Btk IC50)/Glutathione conjugation rate) as shown in the Table 2) is used to compare compounds for their ratio between potency at inhibiting their target and their non-specific binding to other SH groups, such as those in glutathione. […] Calculated ratios such as these are used to quantitatively compare different compounds and select compounds for further study.
For the glutathione binding assays, 5 mM glutathione, 10 μM Btk inhibitor in DMSO (10 μL) and 6 equivalents of N′N′ Diisopropyl ethyl amine were combined in 1 mL potassium phosphate buffer. The mixture was incubated for 0, 15, 60 minutes at room temperature and the reaction was stopped with 10 equivalents of formic acid. 50 μL of each reaction mixture was injected on HPLC (Mobil Phase A: 0.2% formic acid in water, Mobile Phase B: 0.2% formic acid in acetonitrile, HPLC Column: Metasil Basic 3μ, 150×4.6 mm, 10% B, Gradient: 10% to 90% B, Detection: UV/Vis […]). Rate of reaction was reported as nmole GSH conjugate conversion per minute from the normalized ratio for area under the curve from HPLC chromatograms for both GSH conjugate and the parent.

lymphoma cell line DOHH2 = experiment: DOHH2 cell proliferation assay (Alamar Blue); assay type: cell-based; conditions: Homo sapiens, DOHH-2, 72 hours
Method: After 72 hours, cell number was measured using Alamar Blue using manufacturer's protocol. A dilution series of untreated cells was run in parallel to verify that the Alamar Blue assay reliably reflected cell number and that growth conditions were not limiting. […] GI50 values were confirmed in two or more separate experiments for each cell line.
Analogs are generated that are Btk inhibitors and that are cytotoxic to the lymphoma cell line DOHH2. For the DOHH2 cell proliferation assay, cells were seeded in 96-well plates in standard growth media (RPMI+10% fetal calf serum) and compounds were added in a 9-point dilution series ranging from 10 uM to 0.04 uM with DMSO at 0.1% final concentration in all wells. After 72 hours, cell number was measured using Alamar Blue using manufacturer's protocol. A dilution series of untreated cells was run in parallel to verify that the Alamar Blue assay reliably reflected cell number and that growth conditions were not limiting.

## CN(C)C/C=C/C(=O)N1CCC[C@@H]1Cn1nc(-c2ccc(Oc3ccccc3)cc2)c2c(N)ncnc21 [Compound 11, (E)-1-((R)-2-((4-amino-3-(4-phenoxyphenyl)-1H-pyrazolo[3,4-d]pyrimidin-1-yl)methyl)pyrolidin-1-yl)-4-(dimethylamino)but-2-en-1-one]
[1]
  Glutathione Conj Rate: 0.004525 nmol/min
Lymphoma cell line DOHH2
  GI50: > 10 µM
